Results published in ChEMBL document CHEMBL1121427, “Decomposition of pharmacological activity indices into mutually independent components using principal component analysis” (J Med Chem, 1980).

Tests used:
Assay type in all cases: functional
Design in all cases: unit not given here
Enterococcus faecalis = experiment: The compound was evaluated for activity against strain Streptococcus faecalis
Streptococcus pyogenes = experiment: The compound was evaluated for activity against strain Streptococcus hemolyticus
Staphylococcus aureus = experiment: The compound was evaluated for activity against strain Micrococcus aureus
Bacillus subtilis = experiment: Inhibitory activity against Bacillus subtilis

Structure (SMILES) | -Log C (Enterococcus faecalis) | -Log C (Streptococcus pyogenes) | -Log C (Staphylococcus aureus) | -Log C (Bacillus subtilis)
COC1/C=C/OC2(C)Oc3c(C)c(O)c4c(O)c(cc(OCC(=O)Nc5ccccc5)c4c3C2=O)NC(=O)/C(C)=C\C=C\C(C)C(O)C(C)C(O)C(C)C(OC(C)=O)C1C (stereo not given) | 6.04 | 6.84 | 6.92 | 5.43
CCCNC(=O)COc1cc2c(O)c3c(O)c(C)c4c(c13)C(=O)C(C)(O/C=C/C(OC)C(C)C(OC(C)=O)C(C)C(O)C(C)C(O)C(C)/C=C/C=C(/C)C(=O)N2)O4 (stereo not given) | 5.82 | 6.42 | 6.5 | 5.41
CCN(C)C(=O)COc1cc2c(O)c3c(O)c(C)c4c(c13)C(=O)C(C)(O/C=C/C(OC)C(C)C(OC(C)=O)C(C)C(O)C(C)C(O)C(C)/C=C/C=C(/C)C(=O)N2)O4 (stereo not given) | 7.06 | 7.95 | 7.95 | 6.03
CCNC(=O)COc1cc2c(O)c3c(O)c(C)c4c(c13)C(=O)C(C)(O/C=C/C(OC)C(C)C(OC(C)=O)C(C)C(O)C(C)C(O)C(C)/C=C/C=C(/C)C(=O)N2)O4 (stereo not given) | 6.2 | 7.5 | 6.99 | 5.4
CCCN(C)C(=O)COc1cc2c(O)c3c(O)c(C)c4c(c13)C(=O)C(C)(O/C=C/C(OC)C(C)C(OC(C)=O)C(C)C(O)C(C)C(O)C(C)/C=C/C=C(/C)C(=O)N2)O4 (stereo not given) | 7.31 | 8.13 | 7.91 | 6.65
COC1/C=C/OC2(C)Oc3c(C)c(O)c4c(O)c(cc(OCC(=O)N5C(C)CCC5C)c4c3C2=O)NC(=O)/C(C)=C\C=C\C(C)C(O)C(C)C(O)C(C)C(OC(C)=O)C1C (stereo not given) | 7.45 | 8.22 | 8.22 | 6.67
C=CCN(CC=C)C(=O)COc1cc2c(O)c3c(O)c(C)c4c(c13)C(=O)C(C)(O/C=C/C(OC)C(C)C(OC(C)=O)C(C)C(O)C(C)C(O)C(C)/C=C/C=C(/C)C(=O)N2)O4 (stereo not given) | 7.22 | 8.44 | 8.22 | 6.67
COC1/C=C/OC2(C)Oc3c(C)c(O)c4c(O)c(cc(OCC(=O)N(CCCl)CCCl)c4c3C2=O)NC(=O)/C(C)=C\C=C\C(C)C(O)C(C)C(O)C(C)C(OC(C)=O)C1C (stereo not given) | 5.77 | 7.47 | 7.24 | 6.38
COC1/C=C/OC2(C)Oc3c(C)c(O)c4c(O)c(cc(OCC(=O)N(C)C(C)(C)C)c4c3C2=O)NC(=O)/C(C)=C\C=C\C(C)C(O)C(C)C(O)C(C)C(OC(C)=O)C1C (stereo not given) | 7.62 | 8.31 | 8.62 | 6.66
COC1/C=C/OC2(C)Oc3c(C)c(O)c4c(O)c(cc(OCC(=O)N5CCCC5)c4c3C2=O)NC(=O)/C(C)=C\C=C\C(C)C(O)C(C)C(O)C(C)C(OC(C)=O)C1C (stereo not given) | 6.34 | 8.21 | 7.26 | 5.73
COC1/C=C/OC2(C)Oc3c(C)c(O)c4c(O)c(cc(OCC(=O)N5CCCCC5)c4c3C2=O)NC(=O)/C(C)=C\C=C\C(C)C(O)C(C)C(O)C(C)C(OC(C)=O)C1C (stereo not given) | 6.92 | 8.22 | 8.01 | 6.04
CCCN(CCC)C(=O)COc1cc2c(O)c3c(O)c(C)c4c(c13)C(=O)C(C)(O/C=C/C(OC)C(C)C(OC(C)=O)C(C)C(O)C(C)C(O)C(C)/C=C/C=C(/C)C(=O)N2)O4 (stereo not given) | 7.15 | 8.15 | 8.15 | 6.53
COC1/C=C/OC2(C)Oc3c(C)c(O)c4c(O)c(cc(OCC(=O)N5CCC(C)CC5)c4c3C2=O)NC(=O)/C(C)=C\C=C\C(C)C(O)C(C)C(O)C(C)C(OC(C)=O)C1C (stereo not given) | 7.27 | 7.92 | 8.22 | 6.36
COC1/C=C/OC2(C)Oc3c(C)c(O)c4c(O)c(cc(OCC(=O)N(C)C)c4c3C2=O)NC(=O)/C(C)=C\C=C\C(C)C(O)C(C)C(O)C(C)C(OC(C)=O)C1C (stereo not given) | 6.02 | 7.89 | 7.12 | 5.72
CCCCN(C)C(=O)COc1cc2c(O)c3c(O)c(C)c4c(c13)C(=O)C(C)(O/C=C/C(OC)C(C)C(OC(C)=O)C(C)C(O)C(C)C(O)C(C)/C=C/C=C(/C)C(=O)N2)O4 (stereo not given) | 7.22 | 8.62 | 8.44 | 6.35
COC1/C=C/OC2(C)Oc3c(C)c(O)c4c(O)c(cc(OCC(=O)N(c5ccccc5)c5ccccc5)c4c3C2=O)NC(=O)/C(C)=C\C=C\C(C)C(O)C(C)C(O)C(C)C(OC(C)=O)C1C (stereo not given) | 7.65 | 7.55 | 8.65 | 7.05
COC1/C=C/OC2(C)Oc3c(C)c(O)c4c(O)c(cc(OCC(=O)NC(C)C)c4c3C2=O)NC(=O)/C(C)=C\C=C\C(C)C(O)C(C)C(O)C(C)C(OC(C)=O)C1C (stereo not given) | 5.9 | 7.12 | 6.7 | 5.41
COC1/C=C/OC2(C)Oc3c(C)c(O)c4c(O)c(cc(OCC(=O)N(C)C5CCCCC5)c4c3C2=O)NC(=O)/C(C)=C\C=C\C(C)C(O)C(C)C(O)C(C)C(OC(C)=O)C1C (stereo not given) | 7.53 | 7.98 | 8.15 | 6.68
CNC(=O)COc1cc2c(O)c3c(O)c(C)c4c(c13)C(=O)C(C)(O/C=C/C(OC)C(C)C(OC(C)=O)C(C)C(O)C(C)C(O)C(C)/C=C/C=C(/C)C(=O)N2)O4 (stereo not given) | 5.89 | 5.09 | 6.68 | 7.11
COC1/C=C/OC2(C)Oc3c(C)c(O)c4c(O)c(cc(OCC(N)=O)c4c3C2=O)NC(=O)/C(C)=C\C=C\C(C)C(O)C(C)C(O)C(C)C(OC(C)=O)C1C (stereo not given) | 4.91 | 6.62 | 5.7 | 4.78
COC1/C=C/OC2(C)Oc3c(C)c(O)c4c(O)c(cc(OCC(=O)N(CC(C)C)CC(C)C)c4c3C2=O)NC(=O)/C(C)=C\C=C\C(C)C(O)C(C)C(O)C(C)C(OC(C)=O)C1C (stereo not given) | 7.86 | 8.16 | 8.86 | 7.28
CCCCN(CC)C(=O)COc1cc2c(O)c3c(O)c(C)c4c(c13)C(=O)C(C)(O/C=C/C(OC)C(C)C(OC(C)=O)C(C)C(O)C(C)C(O)C(C)/C=C/C=C(/C)C(=O)N2)O4 (stereo not given) | 7.62 | 8.15 | 8.62 | 6.27
COC1/C=C/OC2(C)Oc3c(C)c(O)c4c(O)c(cc(OCC(=O)N(C)Cc5ccccc5)c4c3C2=O)NC(=O)/C(C)=C\C=C\C(C)C(O)C(C)C(O)C(C)C(OC(C)=O)C1C (stereo not given) | 7.09 | 8.16 | 8.24 | 6.37
COC1/C=C/OC2(C)Oc3c(C)c(O)c4c(O)c(cc(OCC(=O)Nc5ccc(Cl)cc5)c4c3C2=O)NC(=O)/C(C)=C\C=C\C(C)C(O)C(C)C(O)C(C)C(OC(C)=O)C1C (stereo not given) | 6.39 | 6.86 | 6.54 | 5.64
CCN(C(=O)COc1cc2c(O)c3c(O)c(C)c4c(c13)C(=O)C(C)(O/C=C/C(OC)C(C)C(OC(C)=O)C(C)C(O)C(C)C(O)C(C)/C=C/C=C(/C)C(=O)N2)O4)c1ccccc1 (stereo not given) | 7.33 | 8.16 | 8.46 | 6.37
